Laboratory results from PMC11400633, “Peptides inhibiting the assembly of monomeric human L‐lactate dehydrogenase into catalytically active homotetramer decrease the synthesis of lactate in cultured cells” (Protein Science : A Publication of the Protein Society, 2024).
*1 amine or outer side, *2 acyl side, *3 side chain or, on linkers, in order; H or OH if unused. [ ]: non-standard residue; d: D form. The star is where a group is joined. d(βAsp) = O=C(O)[C@@H](CC(=O)[*:2])N[*:1]; βAsp = O=C(O)[C@H](CC(=O)[*:2])N[*:1]; OBn = c1ccc(CO*)cc1

Assays:
tetrameric LDH‐A [1] = target: T1, tetrameric LDH‐A (Homo sapiens, UniProt P00338); assay: Steady-state kinetics of pyruvate reduction by tetrameric LDH-A; format: biochemical; conditions: variable β-NADH, 500 μM pyruvate, 1.9 nM tetramer, pH 7.5, 25°C
T1 construct: made in house; host or cells: E. coli BL21(DE3), pET9a (NdeI/BamHI)
Experimental: (§1) To further characterize the catalytic action of monomeric LDH-A exposed to β-NADH and pyruvate, and therefore assembled into tetramer (cf. […] In addition, the kinetics of pyruvate reduction catalyzed by tetrameric LDH-A was assayed under the same conditions used for the monomeric enzyme. Structurally and functionally speaking, the availability of monomeric LDH-A does indeed provide an unprecedented and quite interesting tool to perform quantitative tests of the assembly of monomers into the corresponding catalytically active tetramer. […] In addition to this, the enzyme kinetic parameters were also determined testing reaction velocity as a function of β-NADH concentration, in the presence of 500 μM pyruvate. […] The continuous lines represent the best fit of the Michaelis-Menten equation to the experimental observations. […] The continuous lines represent the best fit of the Michaelis-Menten equation to the experimental observations. (c) Kinetic parameters determined by performing activity assays using monomeric or tetrameric LDH-A, at the indicated final concentrations. Under conditions of variable pyruvate concentration, β-NADH was always used at 125 μM. When reaction mixtures contained variable concentrations of the redox cofactor, pyruvate was invariably added at 500 μM. All the assays were performed at pH 7.5 (Tris-BisTris, 10 mM each.

monomeric human LDH‐A [2] = target: T2, monomeric human LDH‐A (Homo sapiens, UniProt P00338); assay: Steady-state kinetics of pyruvate reduction by monomeric LDH-A (assembled monomers); format: biochemical; conditions: variable β-NADH, 500 μM pyruvate, 7.6 nM monomer, pH 7.5, 25°C
T2 construct: made in house; host or cells: E. coli BL21(DE3), pET9a (NdeI/BamHI)
Experimental: as §1

monomeric human LDH‐A [3] = target: T2, monomeric human LDH‐A; assay: Inhibition by peptides of LDH-A activity gained on assembly of monomeric LDH-A into tetramer; format: biochemical; conditions: 80 μM peptide incubated 5 min with 6.2 nM monomeric LDH-A, 10 mM Tris-HCl + 10 mM BisTris pH 7.5, started with 125 μM β-NADH and 500 μM pyruvate, 25°C, A340, vs control with 1% DMSO, mean ± SD, n = 3
Experimental: (§2) In particular, all the peptides were tested at 80 μM (final concentration), and the LDH activity detected in their presence was compared with the catalytic action observed with control samples devoid of any peptide. First, we decided to assay the octameric peptide TH1, the primary structure of which ([…]) is identical to the LDH‐A region spanning residues 295–302. […] Indeed, the catalytic action exerted by 6 nM tetrameric LDH‐A (in 10 mM Tris–HCl, pH 7.5, containing 150 mM NaCl) was determined as equal to 433 ± 11 and 452 ± 19 nM/s in the absence and in the presence of 80 μM TH1 octapeptide, respectively. Overall, this insensitivity along with the significant effect elicited by TH1 on monomeric LDH‐A indicate that the octapeptide inhibits the assembly of LDH‐A monomers into the corresponding, catalytically active, tetramer. To dissect the inhibition triggered by TH1 on monomeric LDH‐A, we decided to evaluate: (i) whether or not the two halves of the octapeptide, that is, GQNG and ISDL, are equally competent in inhibiting LDH‐A; (ii) the action of linear and cyclic peptides, containing or not D amino acids; and (iii) the effect, if any, triggered by the presence of protecting groups in the peptides to be assayed. It should be noted that to allow the cyclization of tetrapeptide GQNG while maintaining a terminal carboxylic group, the sequence was modified to GQND, while for the cyclization of ISDL while maintaining a terminal amino group, the sequence was modified into KSDL (Table 1).
FIGURE 8 Inhibition exerted by linear and cyclic peptides on LDH‐A activity detected in vitro. […] The gray bars (in “a” and “d”) represent the activity observed in the presence of the same volume of DMSO (1%, v/v) carried to the assay mixtures by the peptides to be tested. (a–c) The effect, if any, of tetrameric peptides featuring the GQND primary structure (see also Table 1) on LDH‐A activity is shown. The inhibition exerted by the octameric peptide TH1 is also reported in “a.” The enzyme activity observed in the presence of linear or cyclic peptides is shown in “b” and “c”, respectively. (d) Extent of LDH‐A activity detected in the presence of linear or cyclic tetrapeptides featuring the KSDL primary structure. Error bars represent SD (n = 3). The experimental observations were compared by Student's t‐test. The ***, **, and * symbols denote p values lower than 0.001, 0.01, and […], respectively. (e) Simulation of the association between the TH2 peptide and monomeric LDH‐A. Predicted interactions between the cyclopeptide c[GQN‐isoD] (TH2) and the N‐terminal sequence Y^9[…]^19, as simulated by molecular dynamics in a box of explicit TIP3P water molecules; gray and red dotted lines represent hydrogen bonds and salt bridges, respectively.
All the assays were performed at 25°C using a Cary 300 Bio spectrophotometer.

MCF7 cells = assay: Colorimetric assay of lactate secretion by MCF7 cells (expressing LDH-A); format: cell-based, human; conditions: for decrease of the concentration of secreted lactate: MCF7, 80 μM peptide with Lipofectamine 2000 (0.5% v/v), 1% DMSO, Krebs-Ringer buffer, 4 h, 37°C, colorimetric, n = 3, vs cells without peptide; for effect on lactate production in the absence of lipofectamine: MCF7, peptide without lipofectamine
Source text: Having identified peptides able to interfere with the assembly of monomeric LDH‐A into catalytically active tetramer, we considered of interest to test the action of peptides against LDH‐A expressed in human cell lines. In particular, we analyzed the lactate secreted by cultured human cells exposed or not to the peptides better performing as inhibitors of LDH‐A in vitro, that is, TH1, TH2, and TH16. Moreover, we used two different cell lines exclusively expressing LDH‐A or LDH‐B, that is, MCF7 and BxPC3, respectively. In MCF7 cells, the [mRNALDH‐A]/[mRNALDH‐B] ratio is indeed equal to ca. 150 (Figure 9a), whereas in BxPC3 cells the messenger coding for LDH‐A was not detected (Figure 9a). Therefore, by comparing the decrease, if any, of the lactate concentration secreted by these two cell lines the selectivity of peptides acting against LDH‐A or LDH‐B can be conveniently estimated. When the MCF7 cell line is considered, the linear TH16 and the cyclic TH2 tetrapeptide performed equally, being both responsible for a concentration of secreted lactate 20% lower than that detected in their absence (Figure 9b). […] Accordingly, it seems likely that lipofectamine is effective in assisting the penetration of the TH16 and TH2 peptides into cells, with this action of lipofectamine being much weaker when dealing with a larger molecule, that is, an octapeptide.
To evaluate the competence of peptides in inhibiting the action of LDH‐A in cultured cells, two human cell cultures were used: MCF7 and BxPC3, isolated from breast and pancreatic adenocarcinoma, respectively. Cultures were grown in DMEM (MCF7) or RPMI medium (BxPC3), supplemented with 100 U/ml penicillin/streptomycin, 2 mM glutamine and 10% (v/v) FBS. All the components of the media used for cell culture were obtained from Merck‐Millipore.
The competence of peptides in inhibiting LDH in cultured cells was tested by assessing the concentration of lactate released by MCF7 and BxPC3 cell cultures. To this aim, cells were seeded in duplicate in 24‐wells plates (2 × 10^5/well) and let to adhere overnight; the culture medium was then replaced by Krebs‐Ringer buffer (300 μl/well). Stock solutions of peptides (8 mM in DMSO) were diluted in Krebs‐Ringer buffer to a final concentration of 640 μM and mixed with an equal volume of 4% (v/v, in Krebs‐Ringer buffer) Lipofectamine 2000 (Invitrogen). The final solution was thoroughly mixed, kept for 25 min at room temperature, and finally 100 μl were added to each plate well, obtaining a final peptide concentration equal to 80 μM. The concentration of lactate released in the Krebs–Ringer buffer was determined after 4 h of incubation at 37°C, using the colorimetric assay previously reported (Rossi et al., [2023]). Each experiment was performed in triplicate and included control samples consisting of untreated cell cultures exposed to the same final concentration of DMSO (1%, v/v) and Lipofectamine (0.5%, v/v) to which were exposed the samples treated with peptides.

BxPC3 cells = assay: Colorimetric assay of lactate secretion by BxPC3 cells (expressing LDH-B); format: cell-based, human; conditions: BxPC3, 80 μM peptide with Lipofectamine 2000 (0.5% v/v), 1% DMSO, Krebs-Ringer buffer, 4 h, 37°C, n = 3
Source text: Having identified peptides able to interfere with the assembly of monomeric LDH‐A into catalytically active tetramer, we considered of interest to test the action of peptides against LDH‐A expressed in human cell lines. In particular, we analyzed the lactate secreted by cultured human cells exposed or not to the peptides better performing as inhibitors of LDH‐A in vitro, that is, TH1, TH2, and TH16. Moreover, we used two different cell lines exclusively expressing LDH‐A or LDH‐B, that is, MCF7 and BxPC3, respectively. In MCF7 cells, the [mRNALDH‐A]/[mRNALDH‐B] ratio is indeed equal to ca. 150 (Figure 9a), whereas in BxPC3 cells the messenger coding for LDH‐A was not detected (Figure 9a). Therefore, by comparing the decrease, if any, of the lactate concentration secreted by these two cell lines the selectivity of peptides acting against LDH‐A or LDH‐B can be conveniently estimated. When the MCF7 cell line is considered, the linear TH16 and the cyclic TH2 tetrapeptide performed equally, being both responsible for a concentration of secreted lactate 20% lower than that detected in their absence (Figure 9b). […] It should indeed be noted that the assays with cells were performed in the presence of lipofectamine (see Section 5). […] Accordingly, it seems likely that lipofectamine is effective in assisting the penetration of the TH16 and TH2 peptides into cells, with this action of lipofectamine being much weaker when dealing with a larger molecule, that is, an octapeptide.
To evaluate the competence of peptides in inhibiting the action of LDH‐A in cultured cells, two human cell cultures were used: MCF7 and BxPC3, isolated from breast and pancreatic adenocarcinoma, respectively. […]
The competence of peptides in inhibiting LDH in cultured cells was tested by assessing the concentration of lactate released by MCF7 and BxPC3 cell cultures. […] The concentration of lactate released in the Krebs–Ringer buffer was determined after 4 h of incubation at 37°C, using the colorimetric assay previously reported (Rossi et al., [2023]). […]

tetrameric LDH‐A [4] = target: T1, tetrameric LDH‐A; assay: Activity assay of tetrameric LDH-A in the presence of peptide; format: biochemical; conditions: 6 nM tetrameric LDH-A, 10 mM Tris-HCl pH 7.5, 150 mM NaCl, 80 μM peptide
Experimental: as §2, with “It should be noted that to allow the cyclization of tetrapeptide GQNG while maintaining a terminal carboxylic group, the sequence was modified to GQND, while for the cyclization of ISDL while maintaining a terminal amino group, the sequence was modified into KSDL (Table 1).” left out

Row | Substance | Inhibition (%) of LDH‐A activity (monomeric human LDH‐A [3]) [%] | further results
1 | β‐NADH |  | K m for β‐NADH, tetrameric LDH‐A (tetrameric LDH‐A [1]): 9.0 ± 0.6 µM; K m for β‐NADH, monomeric LDH‐A (assembled monomers) (monomeric human LDH‐A [2]): 7.7 ± 1.1 µM
2 | c[isoLys‐Ser‐Asp‐Leu] (sidechain bridge or staple) [TH4] | 16 ± 3 | 
3 | c[Gly‐Gln‐Asn‐isoAsp(OBn)] (head to tail) [TH10] | 6 ± 3 | 
4 | cyclo(GQN[d(βAsp)]) (SMILES NC(=O)CC[C@@H]1NC(=O)CNC(=O)C[C@H](C(=O)O)NC(=O)[C@H](CC(N)=O)NC1=O) [TH3] | 26 ± 1 | 
5 | cyclo(GQN[βAsp]) (SMILES NC(=O)CC[C@@H]1NC(=O)CNC(=O)C[C@@H](C(=O)O)NC(=O)[C@H](CC(N)=O)NC1=O) [TH2] | 31 ± 3 | decrease of the concentration of secreted lactate (MCF7 cells): 20%; effect on lactate production in the absence of lipofectamine (MCF7 cells): negligible and not significant effects; effect on lactate secretion (BxPC3 cells): no significant differences
6 | H‐Lys‐Ser‐Asp‐Leu‐OH [TH18] | 5 ± 6 | 
7 | cyclo(GQND(OBn)) (SMILES NC(=O)CC[C@@H]1NC(=O)CNC(=O)[C@H](CC(=O)OCc2ccccc2)NC(=O)[C@H](CC(N)=O)NC1=O) [TH15] | 9 ± 2 | 
8 | H-KSD[dL]-OH (SMILES CC(C)C[C@@H](NC(=O)[C@H](CC(=O)O)NC(=O)[C@H](CO)NC(=O)[C@@H](N)CCCCN)C(=O)O) [TH19] | 4 ± 3 | 
9 | H-GQND(OBn)-OH (SMILES NCC(=O)N[C@@H](CCC(N)=O)C(=O)N[C@@H](CC(N)=O)C(=O)N[C@@H](CC(=O)OCc1ccccc1)C(=O)O) [TH14] | 15 ± 4 | 
10 | H-GQND-OBn (SMILES NCC(=O)N[C@@H](CCC(N)=O)C(=O)N[C@@H](CC(N)=O)C(=O)N[C@@H](CC(=O)O)C(=O)OCc1ccccc1) [TH6] | 14 ± 7 | 
11 | H‐Gly‐Gln‐Asn‐Asp‐OH [TH16] | 22 ± 2 | decrease of the concentration of secreted lactate (MCF7 cells): 20%; effect on lactate production in the absence of lipofectamine (MCF7 cells): negligible and not significant effects; effect on lactate secretion (BxPC3 cells): no significant differences
12 | H-GQNGISDL-OH [TH1] | 36 ± 1 | inhibition of tetrameric LDH‐A activity (in words) (tetrameric LDH‐A [4]): no significant inhibition; catalytic action exerted by tetrameric LDH‐A in the presence of peptide (tetrameric LDH‐A [4]; without peptide 433 ± 11 nM/s): 452 ± 19 nM/s; decrease of the concentration of secreted lactate (MCF7 cells): did not induce any significant effect; effect on lactate secretion (BxPC3 cells): did not induce any significant effect
13 | c[isoLys‐Ser‐Asp‐D‐Leu] (sidechain bridge or staple) [TH5] | 7 ± 3 | 
14 | c[Gly‐Gln‐Asn‐D‐isoAsp(OBn)] (head to tail) [TH11] | 8 ± 4 | 
